From article PMC7551886, “Antitumour Effects of Astaxanthin and Adonixanthin on Glioblastoma” (Marine Drugs, 2020)

Tests used:
U251MG cells [1] = test: Cell viability (CCK-8 assay) in U251MG; type: cell-based, human; settings: treated for 96 h
Description: U251MG, GL261, or U87MG cells were seeded onto 96-well plates at a density of 2 × 10^3 cells/well with DMEM supplemented with 10% FBS and then incubated for 24 h, after which the culture medium was changed to DMEM containing 10% FBS. Then, astaxanthin, adonixanthin or temozolomide (Tokyo Chemical Industry Co., Ltd., Tokyo, Japan) were added to the culture. Cell proliferation was determined using the CCK-8 assay according to the manufacturer’s instructions (Dojindo, Kumamoto, Japan). After each incubation, 10 μL of CCK-8 solution were added to each well. Plates were incubated for 3 h for 37 °C, and the absorbance was read at 450 nm with a reference wavelength of 630 nm using a Varioscan Flash 2.4 microplate reader (Thermo Fisher Scientific, Waltham, MA, USA).

GL261 cells = test: BrdU cell proliferation assay; type: cell-based, mouse; settings: GL261, 10 µM treatment for 72 h; control group 60.56 ± 1.40%
Description: GL261 cells were seeded onto 96-well plates at a density of 2 × 10^3 cells/well with DMEM supplemented with 10% FBS and then incubated for 24 h, after which the culture medium was changed to DMEM containing 10% FBS. Then, astaxanthin, adonixanthin, or temozolomide (Tokyo Chemical Industry Co., Ltd., Tokyo, Japan) were added to the culture. After 72 h of culture, the culture medium was changed to DMEM containing 10% FBS and treated with BrdU at 10 µM for 3 h. After that, immunocytochemistry was performed according to the protocol of anti-BrdU antibody (abcam, ab6326).

U251MG cells [2] = test: Wound healing (cell migration) assay in U251MG; type: cell-based, human; settings: 10 µM, 48 h
Description: The cell migration assay was conducted as previously described. GL261 cells and U251 cells (2.0 × 10^4 cells per well) were plated in a 12-well plate (BD Biosciences, Tokyo, Japan) with culture medium supplemented with 10% FBS. After 24 h of incubation, the medium was changed to DMEM containing 1% FBS. After 6 h, wounds were scratched by a P1000 pipette tip and washed with phosphate-buffered saline (PBS) to eliminate cell debris. Then, fresh medium was added with 10 µM astaxanthin or adonixanthin. Pictures were taken at 48 h and these scratched areas were measured using an All-in-One Fluorescence Microscope (BZ-X710; Keyence, Osaka, Japan). The cell migration rate was measured the area of the wound before migration (S0) and after migration (S1) and calculated […]. The control group was then standardized to be 100%. Wound widths at 0 h were created within 1 to 1.5 mm and data were excluded if they were not suitable for that width.

ERK1/2 = test: Immunoblotting, phosphorylation of ERK1/2 in GL261; type: cell-based, mouse; settings: GL261, 10 µM, 6 h post-treatment
Description: (§1) GL261 cell was seeded at 2.5 × 10^4 cells per well in 24-well plates with culture medium supplemented with 10% FBS. After 24 h of incubation, the medium was changed to DMEM containing 10% FBS and 0.1%DMSO PBS, 300 μM temozolomide, 10 μM astaxanthin, or 10 μM adonixanthin was added for 6 and 48 h. Cells were lysed in a special buffer (RIPA buffer R0278; Sigma-Aldrich, St. Louis, MO, USA) with a protease inhibitor cocktail (Sigma-Aldrich), phosphatase inhibitor cocktails 2 and 3 (Sigma-Aldrich), and sample buffer (Wako, Osaka, Japan). The protein concentration was determined by comparison with a known concentration of bovine serum albumin using the BCA Protein Assay Kit (Thermo Fisher Scientific). The amount of total protein was 2 μg. […] The band intensity was […] using an Immuno Star LD (Wako). Band intensity was measured using an LAS-4000 UV mini Luminescent Image Analyzer (Fujifilm, Tokyo Japan) and Multi Gauge Version 3.0 (Fujifilm). The phosphorylation of ERK1/2, Akt, and p38 MAPK was measured by normalizing against total ERK1/2, total Akt, and total p38 MAPK. […]

[3] = test system: p38 mitogen-activated protein kinase; test: Immunoblotting, phosphorylation of p38 MAPK in GL261; type: cell-based, mouse; settings: GL261, 10 µM, 48 h
Description: as §1

cyclin D1 = test: Immunoblotting, cyclin D1 expression in GL261; type: cell-based, mouse; settings: GL261, 10 µM, 48 h
Description: as §1

Bcl-2 = test: Immunoblotting, Bcl-2 expression in GL261; type: cell-based, mouse; settings: GL261, 10 µM, 48 h
Description: as §1, with “μg. Equal amounts of protein in sample buffer containing 10% 2-mercaptoethanol were subjected to sodium dodecyl sulphate polyacrylamide gel electrophoresis (SDS-PAGE) in 5-20% gradient gels (SuperSep Ace; Wako), and the separated proteins were transferred to polyvinylidene difluoride membrane (Immobilon-P; Merck Millipore Corporation, Bedford, MA, USA). After blocking for 30 min with Blocking One-P (Nacalai Tesque), we incubated the membranes with primary antibodies overnight at 4 °C.” for “μg.”

[4] = Body weight of mice during administration; type: in vivo, mouse
Description: In the experiment of the murine orthotopic glioblastoma model, oral administration of each astaxanthin (10 and 30 mg/kg) and adonixanthin (10 and 30 mg/kg) was initiated 3 days after intracranial injection of GL261 cells and was continued for 10 days. In the experiment of the brain tissue absorption with oral astaxanthin or adonixanthin, after one week of adaptation, ICR mice were randomly divided into the following three groups: control group, astaxanthin group (50 mg/kg), and adonixanthin group (50 mg/kg). Mice were orally administered each reagent suspended in olive oil (5 mL/kg) by the daily single dose for 10 days. The control group was treated by olive oil alone (5 mL/kg).

[5] = known; no reference given; cited from earlier work

SMILES	concentration above which cell viability was suppressed (U251MG cells [1])	BrdU-positive cell rate (GL261 cells) [%]	suppression of cell migration (U251MG cells [2]) [%]	phosphorylation of ERK1/2 (ERK1/2)	phosphorylation of p38 MAPK [3]	expression of cyclin D1 (cyclin D1)	expression of Bcl-2 vs. control (Bcl-2)	changes in body weight ([4]; 10 days of administration)	body weight of treated mice ([4]; after 10 days of administration, vehicle 34.72 ± 2.05 g) [g]	dose that does not show adverse effects even with long-term administration [5] [mg/kg]
CC1=C(/C=C/C(C)=C/C=C/C(C)=C/C=C/C=C(C)/C=C/C=C(C)/C=C/C2=C(C)C(=O)[C@@H](O)CC2(C)C)C(C)(C)C[C@H](O)C1 [Adonixanthin, adonixanthin]	> 0.1 µM	41.31 ± 1.51	26.32 ± 5.14	decreased	increased	decreased	N.S.	–	–	–
CC1=C(/C=C/C(C)=C/C=C/C(C)=C/C=C/C=C(C)/C=C/C=C(C)/C=C/C2=C(C)C(=O)[C@@H](O)CC2(C)C)C(C)(C)C[C@H](O)C1=O [Astaxanthin, astaxanthin]	more than 1 µM	49.13 ± 2.66	21.15 ± 1.84	decreased	increased	decreased	N.S.	No significant changes	35.50 ± 1.95	50
